Test results as given in article PMC4362760, “JAK2^V617F Drives Mcl-1 Expression and Sensitizes Hematologic Cell Lines to Dual Inhibition of JAK2 and Bcl-xL” (PLoS ONE, 2015).
Several values for one entry are separate records, joined by “and”; a condition that tells them apart may be missing. Equal values may be shown once.

Tests used:
SGK1 = SGK1 (Homo sapiens, UniProt O00141); test: TR-FRET Kinome SGK1; format: binding; conditions: SGK1 Millipore .1(Subs Conc)
Excerpt: (§1) (XLS) Click here for additional data file.

DYRK1B = DYRK1B (Homo sapiens, UniProt Q9Y463); test: TR-FRET Kinome DYRK1B; format: binding; conditions: DYRK1B Invitrogen .05(Subs Conc)
DYRK1B, sequence (Q9Y463 whole entry): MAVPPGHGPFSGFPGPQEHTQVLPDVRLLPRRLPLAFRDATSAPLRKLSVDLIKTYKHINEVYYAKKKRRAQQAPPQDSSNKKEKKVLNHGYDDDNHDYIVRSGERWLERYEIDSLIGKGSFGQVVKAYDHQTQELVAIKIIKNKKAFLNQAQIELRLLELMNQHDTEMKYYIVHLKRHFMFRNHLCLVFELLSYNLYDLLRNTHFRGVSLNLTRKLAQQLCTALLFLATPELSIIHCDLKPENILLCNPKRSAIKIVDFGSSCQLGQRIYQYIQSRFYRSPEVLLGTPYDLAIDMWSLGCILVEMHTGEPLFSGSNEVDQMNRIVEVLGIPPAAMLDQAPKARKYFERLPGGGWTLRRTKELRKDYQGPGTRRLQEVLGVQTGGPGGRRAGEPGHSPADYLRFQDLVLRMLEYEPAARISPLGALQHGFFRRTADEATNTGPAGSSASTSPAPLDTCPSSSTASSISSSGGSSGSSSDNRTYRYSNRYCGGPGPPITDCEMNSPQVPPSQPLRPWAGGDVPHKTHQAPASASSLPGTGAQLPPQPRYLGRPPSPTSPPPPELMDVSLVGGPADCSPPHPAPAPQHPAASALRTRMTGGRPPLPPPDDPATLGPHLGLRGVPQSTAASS
Excerpt: as §1

EGFR = EGFR (Homo sapiens, UniProt P00533); test: TR-FRET Kinome EGFR; format: binding; conditions: EGFR Invitrogen .05(Subs Conc)
EGFR, sequence (P00533 25-1210): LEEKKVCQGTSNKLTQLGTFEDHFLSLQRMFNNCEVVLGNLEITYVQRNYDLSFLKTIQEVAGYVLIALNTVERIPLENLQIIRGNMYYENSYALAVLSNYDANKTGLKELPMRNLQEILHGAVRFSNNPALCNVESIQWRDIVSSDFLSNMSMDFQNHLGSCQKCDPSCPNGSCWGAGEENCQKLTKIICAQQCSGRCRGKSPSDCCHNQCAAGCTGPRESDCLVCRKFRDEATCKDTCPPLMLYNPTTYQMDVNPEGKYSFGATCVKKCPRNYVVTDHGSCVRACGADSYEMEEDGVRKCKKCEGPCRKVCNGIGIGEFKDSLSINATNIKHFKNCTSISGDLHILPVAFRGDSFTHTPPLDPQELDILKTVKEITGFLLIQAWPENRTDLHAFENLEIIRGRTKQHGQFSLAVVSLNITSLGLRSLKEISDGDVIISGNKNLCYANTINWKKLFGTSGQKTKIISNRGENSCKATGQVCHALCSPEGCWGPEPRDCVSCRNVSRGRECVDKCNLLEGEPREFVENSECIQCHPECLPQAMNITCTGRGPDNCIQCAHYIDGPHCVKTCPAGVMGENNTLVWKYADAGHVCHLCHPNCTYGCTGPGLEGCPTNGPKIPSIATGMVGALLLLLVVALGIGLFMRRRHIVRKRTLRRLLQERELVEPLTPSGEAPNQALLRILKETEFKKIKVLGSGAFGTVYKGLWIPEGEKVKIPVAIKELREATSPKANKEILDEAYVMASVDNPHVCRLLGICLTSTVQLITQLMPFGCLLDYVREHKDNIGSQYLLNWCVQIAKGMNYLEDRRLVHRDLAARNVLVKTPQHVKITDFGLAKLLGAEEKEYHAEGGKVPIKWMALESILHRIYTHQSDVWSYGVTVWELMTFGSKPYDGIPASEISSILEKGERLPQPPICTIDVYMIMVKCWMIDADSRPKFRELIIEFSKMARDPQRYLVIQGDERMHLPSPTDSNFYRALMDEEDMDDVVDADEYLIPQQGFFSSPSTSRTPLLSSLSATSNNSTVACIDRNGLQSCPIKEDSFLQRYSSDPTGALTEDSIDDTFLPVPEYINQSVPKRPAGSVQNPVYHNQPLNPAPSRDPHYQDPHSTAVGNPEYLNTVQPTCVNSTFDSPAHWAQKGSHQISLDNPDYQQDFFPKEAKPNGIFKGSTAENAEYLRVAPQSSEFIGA
Excerpt: as §1

AMPK = test: TR-FRET Kinome AMPK; format: binding, human; conditions: AMPK Invitrogen .1(Subs Conc)
Excerpt: as §1

STK16 = STK16 (Homo sapiens, UniProt O75716); test: TR-FRET Kinome STK16; format: binding; conditions: STK16 Invitrogen IVGN Tracer .05(Subs Conc)
STK16, sequence (O75716 whole entry): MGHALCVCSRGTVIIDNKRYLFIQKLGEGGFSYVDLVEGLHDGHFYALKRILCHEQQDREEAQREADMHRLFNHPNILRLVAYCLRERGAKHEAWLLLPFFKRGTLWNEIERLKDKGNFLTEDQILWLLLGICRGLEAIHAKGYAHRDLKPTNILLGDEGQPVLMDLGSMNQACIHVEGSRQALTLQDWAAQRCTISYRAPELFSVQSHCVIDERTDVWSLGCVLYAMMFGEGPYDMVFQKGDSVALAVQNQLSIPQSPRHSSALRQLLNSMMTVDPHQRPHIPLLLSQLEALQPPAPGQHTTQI
Excerpt: as §1

PKG1A = PKG1A (Homo sapiens, UniProt Q13976); test: TR-FRET Kinome PKG1A; format: binding; conditions: PKG1A Millipore .05(Subs Conc)
PKG1A, sequence (Q13976 whole entry): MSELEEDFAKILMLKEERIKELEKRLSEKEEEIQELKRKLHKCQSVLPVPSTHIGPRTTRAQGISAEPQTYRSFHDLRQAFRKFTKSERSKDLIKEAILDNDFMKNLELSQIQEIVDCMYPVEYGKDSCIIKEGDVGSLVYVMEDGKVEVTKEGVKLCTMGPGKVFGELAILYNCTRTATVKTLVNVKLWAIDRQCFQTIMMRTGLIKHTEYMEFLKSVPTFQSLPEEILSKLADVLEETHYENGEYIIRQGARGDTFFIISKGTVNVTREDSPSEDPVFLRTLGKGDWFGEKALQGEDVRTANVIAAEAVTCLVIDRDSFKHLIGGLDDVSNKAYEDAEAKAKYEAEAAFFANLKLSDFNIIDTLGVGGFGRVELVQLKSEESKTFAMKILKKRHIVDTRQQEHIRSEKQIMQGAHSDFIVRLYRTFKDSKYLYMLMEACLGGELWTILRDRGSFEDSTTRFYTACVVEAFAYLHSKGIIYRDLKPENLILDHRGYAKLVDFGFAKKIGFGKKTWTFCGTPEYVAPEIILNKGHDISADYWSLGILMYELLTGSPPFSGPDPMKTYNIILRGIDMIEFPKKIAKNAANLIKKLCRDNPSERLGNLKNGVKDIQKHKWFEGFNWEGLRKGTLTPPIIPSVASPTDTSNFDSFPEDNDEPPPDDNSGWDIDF
Excerpt: as §1

[1] = tested on: STAT3 and STAT5 tyrosine phosphorylation; test: Tyrosine phosphorylation of STAT3 and STAT5 by immunoblotting in leukemia cell lines; format: cell-based
Procedure: (§2) SET-2, HEL, MV4;11, and K562 cells were obtained from ATCC and cultured as recommended. UKE-1 cells were purchased from Walter Fiedler (University of Hamburg). Cell lysates were either prepared using CHAPS lysis buffer (10 mM HEPES, pH 7.4, 150 mM NaCl, 1% CHAPS) or cell extraction buffer containing 1% Triton X-100, 0.1% SDS, and 0.5% deoxycholate. All buffers were supplemented with protease and phosphatase inhibitor cocktails prior to use.
(§3) Fig 1 Regulation of Mcl-1 and Bcl-XL by JAK2 ^V617F. […] Tyrosine phoshorylation of STAT3 and STAT5 was determined by immunoblotting. […] Constitutive tyrosine phosphorylation of STAT3 and STAT5 was determined by immunoblotting. […] Data represent means +/- standard deviation for two independent determinations each performed in triplicate. […] (G) Quantification of the data shown in (F). Data are expressed as the ratio of intensity of Mcl-1/β-actin for each time point. […] Data are means of duplicate samples and are representative of two independent experiments.

Bcl-XL = Bcl-XL protein level by immunoblotting; format: cell-based; conditions: 24-hr time course
Procedure: as §2, §3

Mcl-1 mRNA = Mcl-1 mRNA abundance by qPCR in SET-2, UKE-1, HEL, MV4;11, K562 cells; format: cell-based; conditions: for MCL-1 % Control: treated vs non-treated (100.0); for MCL-1 Mean QTY: treated, normalised mRNA quantity by qPCR
Mcl-1 = Mcl-1 protein level by immunoblotting, quantitation by LiCor Odyssey Imager; format: cell-based
Procedure: as §2, §3
Supplementary file pone.0114363.s003.xls: S3 Dataset Quantitation of western blot data by LiCor Odyssey Imager. (XLS) Click here for additional data file.

BRAF = BRAF (Homo sapiens, UniProt P15056); test: TR-FRET Kinome BRAF; format: binding; conditions: BRAF Invitrogen .065(Subs Conc)
BRAF, sequence (P15056 whole entry): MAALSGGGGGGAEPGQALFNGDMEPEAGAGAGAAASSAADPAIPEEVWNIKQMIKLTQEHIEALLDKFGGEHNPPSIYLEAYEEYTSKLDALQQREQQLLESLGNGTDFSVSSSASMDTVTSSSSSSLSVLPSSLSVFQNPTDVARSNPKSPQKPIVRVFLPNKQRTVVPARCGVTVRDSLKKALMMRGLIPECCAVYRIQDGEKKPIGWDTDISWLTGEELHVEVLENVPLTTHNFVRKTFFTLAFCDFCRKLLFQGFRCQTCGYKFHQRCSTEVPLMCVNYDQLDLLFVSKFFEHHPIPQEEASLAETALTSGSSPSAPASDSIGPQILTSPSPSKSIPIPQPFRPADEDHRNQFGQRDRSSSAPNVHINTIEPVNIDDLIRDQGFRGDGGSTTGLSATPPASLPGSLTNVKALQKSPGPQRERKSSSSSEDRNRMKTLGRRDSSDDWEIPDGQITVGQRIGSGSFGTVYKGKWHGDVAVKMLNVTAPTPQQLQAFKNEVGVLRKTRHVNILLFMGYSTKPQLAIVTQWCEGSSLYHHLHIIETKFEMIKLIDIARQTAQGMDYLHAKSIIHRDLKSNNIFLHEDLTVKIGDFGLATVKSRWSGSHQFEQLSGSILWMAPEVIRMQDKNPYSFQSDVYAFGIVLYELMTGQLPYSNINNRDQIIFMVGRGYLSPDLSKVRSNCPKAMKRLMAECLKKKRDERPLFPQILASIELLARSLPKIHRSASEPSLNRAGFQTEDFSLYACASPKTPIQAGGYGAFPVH
Excerpt: as §1

Wee1 = Wee1 (Homo sapiens, UniProt P30291); test: TR-FRET Kinome Wee1; format: binding; conditions: Wee1 Carna Biosciences .015(Subs Conc)
Excerpt: as §1

[2] = tested on: STAT3 binding to the Mcl-1 promoter; test: ChIP of STAT3 binding to the Mcl-1 promoter (EZ-ChIP); format: cell-based; conditions: 1 μM, 6 hr; cell lines expressing JAK2 V617F, not in lines without this lesion
MST1 = MST1 (Homo sapiens, UniProt Q13043); test: TR-FRET Kinome MST1; format: binding; conditions: MST1 Invitrogen .05(Subs Conc)
MST1, sequence (Q13043 whole entry): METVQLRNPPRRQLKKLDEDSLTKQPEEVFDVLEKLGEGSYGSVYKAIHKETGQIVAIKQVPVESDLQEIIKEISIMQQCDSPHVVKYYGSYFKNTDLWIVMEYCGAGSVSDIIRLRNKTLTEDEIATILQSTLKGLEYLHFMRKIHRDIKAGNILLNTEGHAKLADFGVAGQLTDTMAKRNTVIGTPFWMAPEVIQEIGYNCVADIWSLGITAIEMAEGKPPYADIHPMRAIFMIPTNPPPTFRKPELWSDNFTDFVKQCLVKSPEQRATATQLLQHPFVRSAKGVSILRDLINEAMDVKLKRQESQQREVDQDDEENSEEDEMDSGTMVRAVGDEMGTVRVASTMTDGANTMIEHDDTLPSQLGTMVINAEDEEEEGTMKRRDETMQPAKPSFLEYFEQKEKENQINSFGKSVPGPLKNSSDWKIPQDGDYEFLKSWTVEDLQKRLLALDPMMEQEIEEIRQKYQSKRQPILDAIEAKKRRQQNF
Excerpt: as §1

K562 cells = test: Cell viability of K562 cells after siRNA transfection and 72 hr ABT-263; format: cell-based
Procedure: Transfection of siRNAs was performed using Lipofectamine RNAiMAX according to the manufacturer’s recommendations. […] Caspase-3 activity was determined using the Caspase-GLO 3/7 Assay (Promega) in parallel with the CellTiter-GLO viability assay (Promega). The data are expressed as Caspase-3/7 activity divided by cell viability. […]
Data are means of duplicate samples and are representative of two independent experiments. (XLS) Click here for additional data file.

Bcl-w = conditions: cited from earlier work

SGK1, sequence (O00141 whole entry): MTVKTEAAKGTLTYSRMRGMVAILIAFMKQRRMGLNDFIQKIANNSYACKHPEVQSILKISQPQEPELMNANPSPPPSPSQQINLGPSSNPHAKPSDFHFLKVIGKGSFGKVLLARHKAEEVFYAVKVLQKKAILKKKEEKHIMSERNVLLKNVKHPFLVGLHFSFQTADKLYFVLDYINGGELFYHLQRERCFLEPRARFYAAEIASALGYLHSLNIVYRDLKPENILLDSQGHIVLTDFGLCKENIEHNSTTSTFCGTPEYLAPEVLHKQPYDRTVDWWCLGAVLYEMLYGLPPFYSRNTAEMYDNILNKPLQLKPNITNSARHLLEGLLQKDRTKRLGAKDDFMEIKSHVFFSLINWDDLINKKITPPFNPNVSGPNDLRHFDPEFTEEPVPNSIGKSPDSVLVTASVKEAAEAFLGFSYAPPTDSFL

## CC(C)(C)c1nc2c3cc[nH]c(=O)c3c3cc(F)ccc3c2[nH]1 [JAKi-I, JAK inhibitor I]
SGK1
  Ki: 626 nM
DYRK1B
  Ki: > 2650 nM
EGFR
  Ki: > 1670 nM
AMPK
  Ki: 148 nM
STK16
  Ki: > 5410 nM
PKG1A
  Ki: > 3630 nM
[1]; 1 μM, 1 hr, serum-free, only in JAK2 V617F lines (SET-2, UKE-1, HEL), not K562, MV4;11
  constitutive STAT3/5 phosphorylation: inhibited
[1]; UKE-1 (JAK2 V617F) cells, 10 min
  phosphorylation of both STAT3 and STAT5: rapid, dose-dependent inhibition
Bcl-XL
  Bcl-XL protein level: sharply declined
Mcl-1 mRNA; HEL cells
  MCL-1 % Control: 59.2674%
  MCL-1 Mean QTY: 25.0
Mcl-1 mRNA; K562 cells
  MCL-1 % Control: 89.9219%
  MCL-1 Mean QTY: 50.9
Mcl-1 mRNA; MV411 cells
  MCL-1 Mean QTY: 30.6
Mcl-1 mRNA; SET2 cells
  MCL-1 % Control: 37.995%
  MCL-1 Mean QTY: 47.0
Mcl-1 mRNA; following JAK inhibition, 6 hr
  Mcl-1 transcript level: sharply declined
Mcl-1; 24-hr time course
  Mcl-1 protein level: sharply declined
Mcl-1; HEL, 1 uM Jaki-I, 2 hr
  Mcl-1 protein (% control): 62 % control
Mcl-1; HEL, 1 uM Jaki-I, 6 hr
  Mcl-1 protein (% control): 45 % control
Mcl-1; HEL, 1 uM Jaki-I, 24 hr
  Mcl-1 protein (% control): 42 % control
Mcl-1; K562, 1 uM Jaki-I, 2 hr
  Mcl-1 protein (% control): 100 % control
Mcl-1; K562, 1 uM Jaki-I, 6 hr
  Mcl-1 protein (% control): 93 % control
Mcl-1; K562, 1 uM Jaki-I, 24 hr
  Mcl-1 protein (% control): 93 % control
Mcl-1; MV4:11, 1 uM Jaki-I, 2 hr
  Mcl-1 protein (% control): 75 % control
Mcl-1; MV4:11, 1 uM Jaki-I, 6 hr
  Mcl-1 protein (% control): 74 % control
Mcl-1; MV4:11, 1 uM Jaki-I, 24 hr
  Mcl-1 protein (% control): 65 % control
Mcl-1; SET-2, 1 uM Jaki-I, 2 hr
  Mcl-1 protein (% control): 68 % control
Mcl-1; SET-2, 1 uM Jaki-I, 6 hr
  Mcl-1 protein (% control): 50 % control
Mcl-1; SET-2, 1 uM Jaki-I, 24 hr
  Mcl-1 protein (% control): 35 % control
Mcl-1; UKE-1, 1 uM Jaki-I, 2 hr
  Mcl-1 protein (% control): 50 % control
Mcl-1; UKE-1, 1 uM Jaki-I, 6 hr
  Mcl-1 protein (% control): 25 % control
Mcl-1; UKE-1, 1 uM Jaki-I, 24 hr
  Mcl-1 protein (% control): 22 % control
Mcl-1; in the presence of cycloheximide (data not shown)
  Mcl-1 protein stability: not altered
BRAF
  Ki: > 3370 nM
Wee1
  Ki: > 3640 nM
[2]
  STAT3 binding to the MCL1 promoter: disrupted
MST1
  Ki: 28 nM and 29.5 nM

## CC1(C)CCC(c2ccc(Cl)cc2)=C(CN2CCN(c3ccc(C(=O)NS(=O)(=O)c4ccc(N[C@H](CCN5CCOCC5)CSc5ccccc5)c(S(=O)(=O)C(F)(F)F)c4)cc3)CC2)C1 [ABT-263]
K562 cells; K562, Unt., ABT-263 0.003 uM
  Cell Viability (% Inhibiton): 0%
K562 cells; K562, Unt., ABT-263 0.01 uM
  Cell Viability (% Inhibiton): 0%
K562 cells; K562, Unt., ABT-263 0.03 uM
  Cell Viability (% Inhibiton): 0%
K562 cells; K562, Unt., ABT-263 0.1 uM
  Cell Viability (% Inhibiton): 0%
K562 cells; K562, Unt., ABT-263 0.3 uM
  Cell Viability (% Inhibiton): 0%
K562 cells; K562, Unt., ABT-263 1 uM
  Cell Viability (% Inhibiton): 5%
K562 cells; K562, siMcl1-1, ABT-263 0.003 uM
  Cell Viability (% Inhibiton): 0%
K562 cells; K562, siMcl1-1, ABT-263 0.01 uM
  Cell Viability (% Inhibiton): 0%
K562 cells; K562, siMcl1-1, ABT-263 0.03 uM
  Cell Viability (% Inhibiton): 0%
K562 cells; K562, siMcl1-1, ABT-263 0.1 uM
  Cell Viability (% Inhibiton): 0%
K562 cells; K562, siMcl1-1, ABT-263 0.3 uM
  Cell Viability (% Inhibiton): 0%
K562 cells; K562, siMcl1-1, ABT-263 1 uM
  Cell Viability (% Inhibiton): 0%
K562 cells; K562, siMcl1-2, ABT-263 0.003 uM
  Cell Viability (% Inhibiton): 0%
K562 cells; K562, siMcl1-2, ABT-263 0.01 uM
  Cell Viability (% Inhibiton): 0%
K562 cells; K562, siMcl1-2, ABT-263 0.03 uM
  Cell Viability (% Inhibiton): 0%
K562 cells; K562, siMcl1-2, ABT-263 0.1 uM
  Cell Viability (% Inhibiton): 2%
K562 cells; K562, siMcl1-2, ABT-263 0.3 uM
  Cell Viability (% Inhibiton): 11%
K562 cells; K562, siMcl1-2, ABT-263 1 uM
  Cell Viability (% Inhibiton): 21%
K562 cells; K562, siMcl1-3, ABT-263 0.003 uM
  Cell Viability (% Inhibiton): 0%
K562 cells; K562, siMcl1-3, ABT-263 0.01 uM
  Cell Viability (% Inhibiton): 0%
K562 cells; K562, siMcl1-3, ABT-263 0.03 uM
  Cell Viability (% Inhibiton): 0%
K562 cells; K562, siMcl1-3, ABT-263 0.1 uM
  Cell Viability (% Inhibiton): 0%
K562 cells; K562, siMcl1-3, ABT-263 0.3 uM
  Cell Viability (% Inhibiton): 13%
K562 cells; K562, siMcl1-3, ABT-263 1 uM
  Cell Viability (% Inhibiton): 32%
K562 cells; K562, siMcl1-4, ABT-263 0.003 uM
  Cell Viability (% Inhibiton): 0%
K562 cells; K562, siMcl1-4, ABT-263 0.01 uM
  Cell Viability (% Inhibiton): 3%
K562 cells; K562, siMcl1-4, ABT-263 0.03 uM
  Cell Viability (% Inhibiton): 22%
K562 cells; K562, siMcl1-4, ABT-263 0.1 uM
  Cell Viability (% Inhibiton): 60%
K562 cells; K562, siMcl1-4, ABT-263 0.3 uM
  Cell Viability (% Inhibiton): 75%
K562 cells; K562, siMcl1-4, ABT-263 1 uM
  Cell Viability (% Inhibiton): 80%
K562 cells; K562, siNT-1, ABT-263 0.003 uM
  Cell Viability (% Inhibiton): 0%
K562 cells; K562, siNT-1, ABT-263 0.01 uM
  Cell Viability (% Inhibiton): 0%
K562 cells; K562, siNT-1, ABT-263 0.03 uM
  Cell Viability (% Inhibiton): 0%
K562 cells; K562, siNT-1, ABT-263 0.1 uM
  Cell Viability (% Inhibiton): 0%
K562 cells; K562, siNT-1, ABT-263 0.3 uM
  Cell Viability (% Inhibiton): 2%
K562 cells; K562, siNT-1, ABT-263 1 uM
  Cell Viability (% Inhibiton): 10%
Bcl-w
  Ki: < 1 nM
